Assay results: US20260243940A1, “COMPOUND, POLYMERIZABLE COMPOSITION, CURED PRODUCT, OPTICAL FILM, POLARIZING PLATE, AND IMAGE DISPLAY DEVICE” (FUJIFILM Corporation, priority 2019, published 2026)

Experiments:
[1] = Precipitation suppression (recrystallization temperature on cooling, hot stage under polarizing microscope); type: physicochemical; conditions: for Precipitation suppression: class by recrystallization temperature, heated to isotropic phase, then lowered at 5° C./min
Experimental: Two polarizers of an optical microscope (ECLIPSE E600 POL, manufactured by Nikon Corporation) were arranged so that they were orthogonal to each other, and a sample stand was set between the two polarizers.
Then, a small amount of each synthesized compound was placed on a slide glass, and the slide glass was set on a hot stage placed on a sample stand. While observing the state of the sample with a microscope, the temperature of the hot stage was raised at 5° C./min, and the type of liquid crystal phase and the temperature at which phase transition occurred were recorded from the state of the sample.
In addition, for the recrystallization temperature, the temperature was elevated up to an isotropic phase and then lowered at 5° C./min, and a temperature at which crystals were precipitated was recorded.
Based on the results of the recrystallization temperature measured by the above-mentioned method for evaluating the phase transition temperature, the evaluation was made according to the following standard. The results are shown in Table 3 below. • A: Lower than 50° C. • B: 50° C. or higher and 100° C. or lower • C: Higher than 100° C. and 150° C. or lower • D: Higher than 150° C. and 180° C. or lower

[2] = Solubility in cyclopentanone; type: physicochemical; conditions: for Solubility: heated and stirred at 50° C. for 1 minute, left at 20° C. for 10 minutes, concentration lowered from 40% in 5% steps
Experimental: Cyclopentanone was added to 25 mg of each synthesized compound so that the concentration of each compound was 40% by mass, and the mixture was heated and stirred at 50° C. for 1 minute.
Then, the mixture was left to stand at 20° C. for 10 minutes, and in a case where there is no undissolved residue or precipitation, it is determined that the mixture can be dissolved at 40% by mass.
In a case where there was an undissolved residue or precipitation, cyclopentanone was further added to the mixture to reduce the concentration by 5% by mass, an operation of heating and stirring at 50° C. for 1 minute and then leaving the mixture stand at 20° C. for 10 minutes was repeatedly performed until there was no undissolved residue or precipitation, thereby confirming the solubility.

| SMILES | Precipitation suppression [1] | Solubility [2] [% by mass] | precipitation suppression (in words) ([1]; summary of Table 3) | solubility (in words) ([2]; summary of Table 3) |
| --- | --- | --- | --- | --- |
| C=CC(=O)OCCCCOC(=O)C1CCC(C2CCC(C(=O)Oc3ccc(OC(=O)C4CCC(C5CCC(C(=O)OCCCCOC(=O)C=C)CC5)CC4)c4ccccc34)CC2)CC1 (centres unmarked) [Compound 1-1] | D (Higher than 150 °C and 180 °C or lower) | 20 | – | – |
| C=CC(=O)OCCCCOC(=O)C1CCC(C2CCC(C(=O)Oc3cc(C)c(OC(=O)C4CCC(C5CCC(C(=O)OCCCCOC(=O)C=C)CC5)CC4)c4ccccc34)CC2)CC1 (centres unmarked) [Compound 1-2] | C (Higher than 100 °C and 150 °C or lower) | 25 | – | – |
| C=CC(=O)OCCCCOC(=O)C1CCC(C2CCC(C(=O)Oc3cc(OC)c(OC(=O)C4CCC(C5CCC(C(=O)OCCCCOC(=O)C=C)CC5)CC4)c4ccccc34)CC2)CC1 (centres unmarked) [Compound 1-3] | C (Higher than 100 °C and 150 °C or lower) | 20 | – | – |
| C=CC(=O)OCCCCOC(=O)C1CCC(C2CCC(C(=O)Oc3cc(OCC)c(OC(=O)C4CCC(C5CCC(C(=O)OCCCCOC(=O)C=C)CC5)CC4)c4ccccc34)CC2)CC1 (centres unmarked) [Compound 1-4] | B (50 °C or higher and 100 °C or lower) | >40 | – | – |
| C=CC(=O)OCCCCOC(=O)C1CCC(C2CCC(C(=O)Oc3cc(C(=O)OC)c(OC(=O)C4CCC(C5CCC(C(=O)OCCCCOC(=O)C=C)CC5)CC4)c4ccccc34)CC2)CC1 (centres unmarked) [Compound 1-5] | B (50 °C or higher and 100 °C or lower) | >40 | – | – |
| C=CC(=O)OCCCCOC(=O)C1CCC(C2CCC(C(=O)Oc3ccc(OC(=O)C4CCC(C5CCC(C(=O)OCCCCOC(=O)C=C)CC5)CC4)c4cc(C)ccc34)CC2)CC1 (centres unmarked) [Compound 1-6] | C (Higher than 100 °C and 150 °C or lower) | 35 | – | – |
| C=CC(=O)OCCCCOC(=O)C1CCC(C2CCC(C(=O)Oc3ccc(OC(=O)C4CCC(C5CCC(C(=O)OCCCCOC(=O)C=C)CC5)CC4)c4c(C)cccc34)CC2)CC1 (centres unmarked) [Compound 1-7] | C (Higher than 100 °C and 150 °C or lower) | 25 | – | – |
| C=CC(=O)OCCCCOC(=O)C1CCC(C2CCC(C(=O)Oc3ccc(OC(=O)C4CCC(C5CCC(C(=O)OCCCCOC(=O)C=C)CC5)CC4)c4c(OCC)cccc34)CC2)CC1 (centres unmarked) [Compound 1-8] | B (50 °C or higher and 100 °C or lower) | 20 | – | – |
| C=CC(=O)OCCCCOC(=O)C1CCC(C2CCC(C(=O)Oc3ccc(OC(=O)C4CCC(C5CCC(C(=O)OCCCCOC(=O)C=C)CC5)CC4)c4c(OCCCC)cccc34)CC2)CC1 (centres unmarked) [Compound 1-9] | A (Lower than 50° C.) | 20 | – | – |
| C=CC(=O)OCCCCOC(=O)C1CCC(C2CCC(C(=O)Oc3ccc(OC(=O)C4CCC(C5CCC(C(=O)OCCCCOC(=O)C=C)CC5)CC4)c4c(OCCCCCCCC)cccc34)CC2)CC1 (centres unmarked) [Compound 1-10] | B (50 °C or higher and 100 °C or lower) | 30 | – | – |
| C=CC(=O)OCCCCOC(=O)C1CCC(C2CCC(C(=O)Oc3ccc(OC(=O)C4CCC(C5CCC(C(=O)OCCCCOC(=O)C=C)CC5)CC4)c4c(OC(C)=O)cccc34)CC2)CC1 (centres unmarked) [Compound 1-11] | A (Lower than 50° C.) | 35 | – | – |
| C=C(C)C(=O)OCCCCOC(=O)C1CCC(C2CCC(C(=O)Oc3ccc(OC(=O)C4CCC(C5CCC(C(=O)OCCCCOC(=O)C(=C)C)CC5)CC4)c4c(OC(C)=O)cccc34)CC2)CC1 (centres unmarked) [Compound 1-12] | A (Lower than 50° C.) | 35 | – | – |
| C=CC(=O)OCCOC(=O)C1CCC(C2CCC(C(=O)Oc3ccc(OC(=O)C4CCC(C5CCC(C(=O)OCCOC(=O)C=C)CC5)CC4)c4c(OC(C)=O)cccc34)CC2)CC1 (centres unmarked) [Compound 1-13] | A (Lower than 50° C.) | 30 | – | – |
| C=CC(=O)OCCOCCOCCOC(=O)C1CCC(C2CCC(C(=O)Oc3ccc(OC(=O)C4CCC(C5CCC(C(=O)OCCOCCOCCOC(=O)C=C)CC5)CC4)c4c(OC(C)=O)cccc34)CC2)CC1 (centres unmarked) [Compound 1-15] | A (Lower than 50° C.) | >40 | – | – |
| C=CC(=O)OCCCCOC(=O)C1CCC(C2CCC(C(=O)Oc3ccc(OC(=O)C4CCC(C5CCC(C(=O)OCCCCOC(=O)C=C)CC5)CC4)c4c(OCC)ccc(OCC)c34)CC2)CC1 (centres unmarked) [Compound 1-16] | A (Lower than 50° C.) | >40 | – | – |
| C=CC(=O)OCCCCOC(=O)C1CCC(C2CCC(C(=O)Oc3ccc(OC(=O)C4CCC(C5CCC(C(=O)OCCCCOC(=O)C=C)CC5)CC4)c4c(OC(C)=O)ccc(OC(C)=O)c34)CC2)CC1 (centres unmarked) [Compound 1-17] | C (Higher than 100 °C and 150 °C or lower) | 20 | – | – |
| C=CC(=O)OCCCCOC(=O)C1CCC(OC(=O)C2CCC(C(=O)Oc3ccc(OC(=O)C4CCC(C(=O)OC5CCC(C(=O)OCCCCOC(=O)C=C)CC5)CC4)c4ccccc34)CC2)CC1 (centres unmarked) [Compound 2-1] | C (Higher than 100 °C and 150 °C or lower) | 10 | – | – |
| C=CC(=O)OCCCCOc1ccc(C(=O)Oc2ccc(C(=O)Oc3ccc(OC(=O)c4ccc(OC(=O)c5ccc(OCCCCOC(=O)C=C)cc5)cc4)c4c(OC(C)=O)cccc34)cc2)cc1 [Compound 2-2] | C (Higher than 100 °C and 150 °C or lower) | 15 | – | – |
| C=CC(=O)OCCCCOC(=O)C1CCC(C2CCC(C(=O)Oc3ccc(OC(=O)C4CCC(C5CCC(C(=O)OCCCCOC(=O)C=C)CC5)CC4)c4c(OS(C)(=O)=O)cccc34)CC2)CC1 (centres unmarked) [Compound 2-3] | A (Lower than 50° C.) | 25 | – | – |
| C=CC(=O)OCCCCOC(=O)C1CCC(C2CCC(C(=O)Oc3ccc(OC(=O)C4CCC(C5CCC(C(=O)OCCCCOC(=O)C=C)CC5)CC4)c4c(OC(=O)CCl)cccc34)CC2)CC1 (centres unmarked) [Compound 2-4] | A (Lower than 50° C.) | 20 | – | – |
| C=CC(=O)OCCCCOc1ccc(C(=O)Oc2ccc(OC(=O)c3ccc(OC(=O)c4ccc(OC(=O)c5ccc(OCCCCOC(=O)C=C)cc5)cc4)c(C)c3)cc2)cc1 [compound 2, reference compound] | C (Higher than 100 °C and 150 °C or lower) | <5 | deteriorated | deteriorated |
